# Experimental data: patent US20170348371A1, “THE ANTI CANCEROUS, ANTIPARASITE (TOXOPLASMA GONDII (PROTOZOON) AND ANTIMICROBIAL EFFECT AND DOSAGE OF NIGELLA (NIGELLA SATIVA) EXTRACT” (priority 2014, published 2017)
# Assays:
# Hep2 cells = test: MTT cytotoxicity test on Hep2 cell line; assay type: cell-based, Human
# Text: The oils of the plant as an extract are used which have been obtained by cold pressing and it has been ensured that the extract is fresh and pure. The extracts that have been obtained through the whole study have been initially diluted with solvents, filtered and sterilized. […] The maximum dose and dilution sub doses that have been determined accordingly have been repeated controlled groups. Different amounts of Hep2 cells have been tested in flat bottomed 96 well plates for cell culture during the first stage of the study and it has been determined that […] cells were optimal for the monolayer layer of 2×10^4 cell per well. A pure oil of Nigella plant extract, which has been tested inside various solvents in terms of penetration into cells and homogenous distribution. MTT tests have been carried out relating to Hep2 cells in solvents too. DMSO was selected from solvents such as DMSO and Methanol and was used and cytopathic doses have not been exceeded during the whole study (FIG. 2). Essential oil has been obtained from Nigella and emulsions have been obtained from fixed oil plants (Ginger etc.) and compounds.
# Toxoplasma gondii = test: ELISA test of efficiency against Toxoplasma gondii in infected Hep2 cells; assay type: cell-based; settings: for ELISA OD value according to positive control (reproduction) / ELISA value in comparison to PK: 48 hours; for ELISA value: 72 hour plates
# Text: An ELISA (Enzyme-Linked Immunosorbent Assay) test (FIG. 4) has been planned and conducted in order to determine efficiency against Toxoplasma gondii.
# The ELISA test has been carried out on flat bottom well plates having 96 wells. First of all the base of the plates have been covered with a suitable amount of Hep2 cells. […] Following this all wells have been processed again with different doses (determined with MTT) of Pyrimtheamine, Sulphadiazine and Nigella Sativa extract, prepared with DMSO.
# The result was read by the ELISA reader device in 30 minutes
structure (smiles),measurement,setting,value
CCc1nc(N)nc(N)c1-c1ccc(Cl)cc1 [Pyrimethamine],OD value in MTT test,Hep2 cells; 1 μg/ml,"1,228"
same,OD value in MTT test,Hep2 cells; 2 μg/ml,"1,198"
same,OD value in MTT test,Hep2 cells; 4 μg/ml,0.623
same,OD value in MTT test,Hep2 cells; 8 μg/ml,0.310
same,OD value in MTT test,Hep2 cells; 16 μg/ml,0.209
same,OD value in MTT test,Hep2 cells; 32 μg/ml,0.097
same,ELISA OD value according to positive control (reproduction),Toxoplasma gondii; 0.5 μg/ml,75%
same,ELISA OD value according to positive control (reproduction),Toxoplasma gondii; 1 μg/ml (printed '2.1 and 0.5 μg/ml doses'),54%
same,ELISA OD value according to positive control (reproduction),Toxoplasma gondii; 2 μg/ml (printed '2.1 and 0.5 μg/ml doses'),56%
same,ELISA OD value according to positive control (reproduction),Toxoplasma gondii; 4 μg/ml,45%
same,ELISA value,Toxoplasma gondii; 4 μg/ml (1st dose),48%
same,ELISA value,Toxoplasma gondii; 2nd dose of series starting from 4 μg/ml,29%
same,ELISA value,Toxoplasma gondii; 3rd dose of series starting from 4 μg/ml,36%
same,ELISA value,Toxoplasma gondii; 4th dose of series starting from 4 μg/ml,41%
same,ELISA value,Toxoplasma gondii; 5th dose of series starting from 4 μg/ml,32%
same,ELISA value,Toxoplasma gondii; 6th dose of series starting from 4 μg/ml,27%
same,ELISA value,Toxoplasma gondii; 7th dose of series starting from 4 μg/ml,27%
same,ELISA value,Toxoplasma gondii; 8th dose of series starting from 4 μg/ml,73%
Nc1ccc(S(=O)(=O)Nc2ncccn2)cc1 [Sulphadiazine],OD value in MTT test,Hep2 cells; 50 μg/ml,"1,002"
same,OD value in MTT test,Hep2 cells; 100 μg/ml,0.827
same,OD value in MTT test,Hep2 cells; 200 μg/ml,0.254
same,ELISA value in comparison to PK,Toxoplasma gondii; 25 μg/ml,80%
same,ELISA value in comparison to PK,Toxoplasma gondii; 50 μg/ml,97%
same,ELISA value in comparison to PK,Toxoplasma gondii; 4th dose of series from 100 μg/ml (concentration not given),79%
same,ELISA value in comparison to PK,Toxoplasma gondii; 5th dose of series from 100 μg/ml (concentration not given),61%
same,ELISA value in comparison to PK,Toxoplasma gondii; 6th dose of series from 100 μg/ml (concentration not given),95%
same,ELISA value in comparison to PK,Toxoplasma gondii; 7th dose of series from 100 μg/ml (concentration not given),84%
same,ELISA value in comparison to PK,Toxoplasma gondii; 8th dose of series from 100 μg/ml (concentration not given),97%
same,ELISA value in comparison to PK,Toxoplasma gondii; concentration of 100 (unit not given),51%
same,ELISA value,Toxoplasma gondii; 100 μg/ml (1st dose),52%
same,ELISA value,Toxoplasma gondii; 2nd dose of series starting from 100 μg/ml,57%
same,ELISA value,Toxoplasma gondii; 3rd dose of series starting from 100 μg/ml,52%
same,ELISA value,Toxoplasma gondii; 4th dose of series starting from 100 μg/ml,77%
same,ELISA value,Toxoplasma gondii; 5th dose of series starting from 100 μg/ml,75%
same,ELISA value,Toxoplasma gondii; 6th dose of series starting from 100 μg/ml,55%
same,ELISA value,Toxoplasma gondii; 7th dose of series starting from 100 μg/ml,52%
same,ELISA value,Toxoplasma gondii; 8th dose of series starting from 100 μg/ml,84%
